Activity calls are given as the source filed them. The calls are words filed in the database; no cut-off is given here.
Key:
[1] = system: CCRF-CEM; test: Potentiation of imatinib-induced antileukemic activity against human CCRF-CEM cells at 4.3 uM in presence of bone-marrow derived stromal cell-conditioned medium; format: functional, cell-based
[2] = system: MOLM-14; test: Potentiation of lapatinib-induced antileukemic activity against human MOLM-14 cells at 4.3 uM in presence of bone-marrow derived stromal cell-conditioned medium; format: functional, cell-based
[3] = system: U-937; test: Potentiation of asparaginase-induced antileukemic activity against human U-937 cells at 4.3 uM in presence of bone-marrow derived stromal cell-conditioned medium; format: functional, cell-based
[4] = system: CCRF-CEM; test: Potentiation of idasanutlin-induced antileukemic activity against human CCRF-CEM cells at 4.3 uM in presence of bone-marrow derived stromal cell-conditioned medium; format: functional, cell-based
[5] = system: CCRF-CEM; test: Potentiation of olaparid-induced antileukemic activity against human CCRF-CEM cells at 4.3 uM in presence of bone-marrow derived stromal cell-conditioned medium; format: functional, cell-based
[6] = system: CCRF-CEM; test: Potentiation of sorafenib-induced antileukemic activity against human CCRF-CEM cells at 4.3 uM in presence of bone-marrow derived stromal cell-conditioned medium; format: functional, cell-based
[7] = biological target: Bromodomain-containing protein 3 (Homo sapiens, UniProt Q15059); test: Inhibition of human partial length BRD3-BD2 (G306 to P416 residues) expressed in bacterial system at 1 uM by BROMOscan method relative to control
Bromodomain-containing protein 3, sequence (Q15059 2-726 limits assumed): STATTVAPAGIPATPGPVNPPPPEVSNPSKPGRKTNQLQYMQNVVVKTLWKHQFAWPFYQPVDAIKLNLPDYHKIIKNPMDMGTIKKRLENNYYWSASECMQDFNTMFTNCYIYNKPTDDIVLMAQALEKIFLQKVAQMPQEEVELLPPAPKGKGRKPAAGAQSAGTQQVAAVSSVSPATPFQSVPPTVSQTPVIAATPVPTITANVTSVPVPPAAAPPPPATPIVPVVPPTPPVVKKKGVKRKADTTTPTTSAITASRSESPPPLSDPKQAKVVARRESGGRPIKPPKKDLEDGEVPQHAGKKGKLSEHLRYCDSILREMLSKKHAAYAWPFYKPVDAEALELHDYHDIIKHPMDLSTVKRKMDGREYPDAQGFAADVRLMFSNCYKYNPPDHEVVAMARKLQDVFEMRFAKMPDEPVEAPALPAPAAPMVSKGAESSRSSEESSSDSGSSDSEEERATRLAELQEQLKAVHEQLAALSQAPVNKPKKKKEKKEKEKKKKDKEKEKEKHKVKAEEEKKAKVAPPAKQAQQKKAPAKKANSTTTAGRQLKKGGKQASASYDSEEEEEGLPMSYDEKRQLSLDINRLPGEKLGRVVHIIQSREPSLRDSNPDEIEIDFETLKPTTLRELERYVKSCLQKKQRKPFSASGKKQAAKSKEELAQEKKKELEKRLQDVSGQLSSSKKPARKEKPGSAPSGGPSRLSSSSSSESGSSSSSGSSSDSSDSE

[8] = system: CCRF-CEM; test: Potentiation of 17AAG-induced antileukemic activity against human CCRF-CEM cells at 4.3 uM in presence of bone-marrow derived stromal cell-conditioned medium; format: functional, cell-based
[9] = system: U-937; test: Potentiation of niotinib-induced antileukemic activity against human U-937 cells at 4.3 uM in presence of bone-marrow derived stromal cell-conditioned medium; format: functional, cell-based
[10] = system: CCRF-CEM; test: Potentiation of dasatinib-induced antileukemic activity against human CCRF-CEM cells at 4.3 uM in presence of bone-marrow derived stromal cell-conditioned medium; format: functional, cell-based
[11] = system: U-937; test: Potentiation of AT9283-induced antileukemic activity against human U-937 cells at 4.3 uM in presence of bone-marrow derived stromal cell-conditioned medium; format: functional, cell-based
[12] = system: CCRF-CEM; test: Potentiation of OTX015-induced antileukemic activity against human CCRF-CEM cells at 4.3 uM in presence of bone-marrow derived stromal cell-conditioned medium; format: functional, cell-based
[13] = system: CCRF-CEM; test: Potentiation of EPZ5676-induced antileukemic activity against human CCRF-CEM cells at 4.3 uM in presence of bone-marrow derived stromal cell-conditioned medium; format: functional, cell-based
[14] = system: CCRF-CEM; test: Potentiation of cyclopamine-induced antileukemic activity against human CCRF-CEM cells at 4.3 uM in presence of bone-marrow derived stromal cell-conditioned medium; format: functional, cell-based
[15] = system: CCRF-CEM; test: Potentiation of entinostat-induced antileukemic activity against human CCRF-CEM cells at 4.3 uM in presence of bone-marrow derived stromal cell-conditioned medium; format: functional, cell-based
[16] = system: CCRF-CEM; test: Potentiation of AC-4-130-induced antileukemic activity against human CCRF-CEM cells at 4.3 uM in presence of bone-marrow derived stromal cell-conditioned medium; format: functional, cell-based
[17] = system: CCRF-CEM; test: Potentiation of carfilzomib-induced antileukemic activity against human CCRF-CEM cells at 4.3 uM in presence of bone-marrow derived stromal cell-conditioned medium; format: functional, cell-based
[18] = system: MOLM-14; test: Potentiation of SGI-1776-induced antileukemic activity against human MOLM-14 cells at 4.3 uM in presence of bone-marrow derived stromal cell-conditioned medium; format: functional, cell-based
[19] = system: CCRF-CEM; test: Potentiation of volasertib-induced antileukemic activity against human CCRF-CEM cells at 4.3 uM in presence of bone-marrow derived stromal cell-conditioned medium; format: functional, cell-based
[20] = system: MOLM-14; test: Potentiation of azacitidine-induced antileukemic activity against human MOLM-14 cells at 4.3 uM in presence of bone-marrow derived stromal cell-conditioned medium; format: functional, cell-based
[21] = system: U-937; test: Potentiation of quizartinib-induced antileukemic activity against human U-937 cells at 4.3 uM in presence of bone-marrow derived stromal cell-conditioned medium; format: functional, cell-based
[22] = system: U-937; test: Potentiation of afatinib-induced antileukemic activity against human U-937 cells at 4.3 uM in presence of bone-marrow derived stromal cell-conditioned medium; format: functional, cell-based
[23] = system: MOLM-14; test: Potentiation of bortezomib-induced antileukemic activity against human MOLM-14 cells at 4.3 uM in presence of bone-marrow derived stromal cell-conditioned medium; format: functional, cell-based
[24] = system: MOLM-14; test: Potentiation of volasertib-induced antileukemic activity against human MOLM-14 cells at 4.3 uM in presence of bone-marrow derived stromal cell-conditioned medium; format: functional, cell-based
[25] = system: CCRF-CEM; test: Potentiation of idarubicin-induced antileukemic activity against human CCRF-CEM cells at 4.3 uM in presence of bone-marrow derived stromal cell-conditioned medium; format: functional, cell-based
[26] = system: MOLM-14; test: Potentiation of daunorubicine-induced antileukemic activity against human MOLM-14 cells at 4.3 uM in presence of bone-marrow derived stromal cell-conditioned medium; format: functional, cell-based
[27] = system: MOLM-14; test: Potentiation of GSK126-induced antileukemic activity against human MOLM-14 cells at 4.3 uM in presence of bone-marrow derived stromal cell-conditioned medium; format: functional, cell-based
[28] = system: U-937; test: Potentiation of prima1-induced antileukemic activity against human U-937 cells at 4.3 uM in presence of bone-marrow derived stromal cell-conditioned medium; format: functional, cell-based
[29] = system: U-937; test: Potentiation of panobinostat-induced antileukemic activity against human U-937 cells at 4.3 uM in presence of bone-marrow derived stromal cell-conditioned medium; format: functional, cell-based
[30] = system: CCRF-CEM; test: Potentiation of daunorubicine-induced antileukemic activity against human CCRF-CEM cells at 4.3 uM in presence of bone-marrow derived stromal cell-conditioned medium; format: functional, cell-based
[31] = system: CCRF-CEM; test: Potentiation of rigosertib-induced antileukemic activity against human CCRF-CEM cells at 4.3 uM in presence of bone-marrow derived stromal cell-conditioned medium; format: functional, cell-based
[32] = system: MOLM-14; test: Potentiation of arsenic-induced antileukemic activity against human MOLM-14 cells at 4.3 uM in presence of bone-marrow derived stromal cell-conditioned medium; format: functional, cell-based
[33] = system: MOLM-14; test: Potentiation of luminespid-induced antileukemic activity against human MOLM-14 cells at 4.3 uM in presence of bone-marrow derived stromal cell-conditioned medium; format: functional, cell-based
[34] = system: MOLM-14; test: Potentiation of imatinib-induced antileukemic activity against human MOLM-14 cells at 4.3 uM in presence of bone-marrow derived stromal cell-conditioned medium; format: functional, cell-based
[35] = system: MOLM-14; test: Potentiation of SGI-1027-induced antileukemic activity against human MOLM-14 cells at 4.3 uM in presence of bone-marrow derived stromal cell-conditioned medium; format: functional, cell-based
[36] = system: U-937; test: Potentiation of imatinib-induced antileukemic activity against human U-937 cells at 4.3 uM in presence of bone-marrow derived stromal cell-conditioned medium; format: functional, cell-based
[37] = system: MOLM-14; test: Potentiation of JQ1-induced antileukemic activity against human MOLM-14 cells at 4.3 uM in presence of bone-marrow derived stromal cell-conditioned medium; format: functional, cell-based
[38] = system: MOLM-14; test: Potentiation of navitoclax-induced antileukemic activity against human MOLM-14 cells at 4.3 uM in presence of bone-marrow derived stromal cell-conditioned medium; format: functional, cell-based
[39] = system: CCRF-CEM; test: Potentiation of SGI-1027-induced antileukemic activity against human CCRF-CEM cells at 4.3 uM in presence of bone-marrow derived stromal cell-conditioned medium; format: functional, cell-based
[40] = system: MOLM-14; test: Potentiation of GSK2879552-induced antileukemic activity against human MOLM-14 cells at 4.3 uM in presence of bone-marrow derived stromal cell-conditioned medium; format: functional, cell-based
[41] = system: U-937; test: Potentiation of palbociclib-induced antileukemic activity against human U-937 cells at 4.3 uM in presence of bone-marrow derived stromal cell-conditioned medium; format: functional, cell-based

CC(=O)N1CCc2c(sc3nc(SCC(=O)Nc4cccnc4C)n(Cc4ccco4)c(=O)c23)C1 was tested, and the Activity [1] was “inactive”, the Activity [2] was “inactive” and the Activity [3] was “inactive”. For the same compound, the Activity [4] was “inactive”, the Activity [5] was “inactive” and the Activity [6] was “inactive”. The inhibition [7] was 36%, the Activity [8] was “inactive” and the Activity [9] was “inactive”. The Activity [10] was “inactive”, the Activity [11] was “inactive” and the Activity [12] was “inactive”. For the same compound, the Activity [13] was “inactive”, the Activity [14] was “inactive” and the Activity [15] was “inactive”. For the same compound, the Activity [16] was “inactive”, the Activity [17] was “inactive” and the Activity [18] was “inactive”. The Activity [19] was “inactive”, the Activity [20] was “inactive” and the Activity [21] was “inactive”. The Activity [22] was “inactive”, the Activity [23] was “inactive” and the Activity [24] was “inactive”. The Activity [25] was “inactive”, the Activity [26] was “inactive” and the Activity [27] was “inactive”. For the same compound, the Activity [28] was “inactive”, the Activity [29] was “inactive” and the Activity [30] was “inactive”. For the same compound, the Activity [31] was “inactive”, the Activity [32] was “inactive” and the Activity [33] was “inactive”. The Activity [34] was “inactive”, the Activity [35] was “inactive” and the Activity [36] was “inactive”. The Activity [37] was “inactive”, the Activity [38] was “inactive” and the Activity [39] was “inactive”. The Activity [40] was “inactive” and the Activity [41] was “inactive”.

From ChEMBL document CHEMBL5046315, “CRCM5484: A BET-BDII Selective Compound with Differential Anti-leukemic Drug Modulation” (J Med Chem, 2022)
